In the experiment the target is human FynB (Homo sapiens, UniProt P06241). Nature of the experiment: Inhibition of FynB-induced Tau(Y18)-phosphorylation in HEK293 cells. The class given is cell-based. How it is done: After 24 h, cells were transfected in order to over-express either constitutively active form of human FynB and Tau protein (isoform 0N4R), through an optimized Lipofectamine®3000 Transfection protocol (Life Technologies™). A non-transfected sample (negative control) was included in every experiment. Twenty-four hours from transfection, treatments of cells were performed by adding fresh medium containing diluent (DMSO 0.1% final concentration) or test compounds. The incubation was carried out for 6 or 24 hours at 37° C. with 5% CO2. At the end of the incubation, the medium was removed and cellular lysates, obtained by adding M-PER lysis/Protease/Phosphatase inhibitors cocktail, were transferred into Eppendorf tubes, sonicated and stored at −80° C. Protein content was measured by Bradford method. Lysates were analyzed either by customized ELISA assays for Tau phosphorylation (Tyrosine 18 residue—Fyn mediated) and Tau-Total amount determination.

Structures are written as SMILES.

Chain of human FynB (P06241 2-537 limits assumed): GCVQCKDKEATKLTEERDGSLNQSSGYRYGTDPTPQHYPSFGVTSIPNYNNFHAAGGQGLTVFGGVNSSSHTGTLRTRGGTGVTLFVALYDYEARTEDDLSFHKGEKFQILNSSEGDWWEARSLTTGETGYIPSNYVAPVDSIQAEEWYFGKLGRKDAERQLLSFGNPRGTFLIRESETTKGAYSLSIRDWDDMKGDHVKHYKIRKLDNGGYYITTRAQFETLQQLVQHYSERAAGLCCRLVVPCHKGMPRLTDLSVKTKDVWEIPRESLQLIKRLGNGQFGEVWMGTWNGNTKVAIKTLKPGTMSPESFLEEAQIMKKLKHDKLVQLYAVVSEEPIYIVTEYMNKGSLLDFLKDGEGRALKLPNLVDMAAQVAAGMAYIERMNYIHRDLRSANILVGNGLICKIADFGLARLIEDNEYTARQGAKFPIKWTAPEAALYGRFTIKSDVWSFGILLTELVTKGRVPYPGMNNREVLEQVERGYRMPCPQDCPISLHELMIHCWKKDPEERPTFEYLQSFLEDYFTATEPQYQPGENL

Take `Cc1ccc(NC(=O)c2cccc(C(F)(F)F)c2)cc1CCc1cc(Nc2cnccn2)[nH]n1` [Compound 3, N-(4-methyl-3-(2-(5-(pyrazin-2-ylamino)-1H-pyrazol-3-yl)ethyl)phenyl)-3-(trifluoromethyl)benzamide]: the “Effect on Tau-protein total amount” value is on record as “Moderate not significant effect”. Besides, the “Mean percentage of inhibition of Tau(Y18)-phosphorylation” value (after 24 hours of treatment) was determined as 95%. The IC50 (read-out: Inhibition of FynB-induced Tau(Y18)-phosphorylation IC50, after 6 hours of treatment) was 131 nM.

Usually IC50 stands for the midpoint of a concentration-inhibition curve.

For the origin of these results see patent US12509446B2, “FYN and VEGFR2 kinase inhibitors” (ROTTAPHARM BIOTECH S.R.L., priority 2019, dated 2025).
